Entries after “also recorded” stand apart in the source; their conditions may differ. Each block holds one compound with its values, some of them ahead of it. Square brackets hold non-standard residues; d marks the D form. Peptide text beside a SMILES is read from it. Sar = CNCC(=O)O
Experiments:
[1] = test system: peptide transporter; test: Uptake of [^3H]Gly-Sar by MDCKII-MDR1 cells in the presence of drug/derivative; format: cell-based, dog; details: for Uptake of [^3H]Gly-Sar: control 0.033; for Inhibition of [^3H]Gly-Sar uptake: MDCKII-MDR1 cells, quinidine and derivatives
Procedure: Studies were performed to investigate whether derivatives of quinidine are substrates for a nutrient peptide transport system.
Unlabeled Gly-Sar at concentrations of 1 and 2 mM reduced the uptake of [^3H]Gly-Sar from 0.033 to 0.026 pmol/(min mg) (20%) and 0.019 pmol/(min mg) (41%), respectively (FIG. 9).

[2] = target: P-gp (Homo sapiens, UniProt P08183); details: MDCKII-MDR1 cells
P-gp (Homo sapiens, UniProt P08183), sequence (P08183 whole entry): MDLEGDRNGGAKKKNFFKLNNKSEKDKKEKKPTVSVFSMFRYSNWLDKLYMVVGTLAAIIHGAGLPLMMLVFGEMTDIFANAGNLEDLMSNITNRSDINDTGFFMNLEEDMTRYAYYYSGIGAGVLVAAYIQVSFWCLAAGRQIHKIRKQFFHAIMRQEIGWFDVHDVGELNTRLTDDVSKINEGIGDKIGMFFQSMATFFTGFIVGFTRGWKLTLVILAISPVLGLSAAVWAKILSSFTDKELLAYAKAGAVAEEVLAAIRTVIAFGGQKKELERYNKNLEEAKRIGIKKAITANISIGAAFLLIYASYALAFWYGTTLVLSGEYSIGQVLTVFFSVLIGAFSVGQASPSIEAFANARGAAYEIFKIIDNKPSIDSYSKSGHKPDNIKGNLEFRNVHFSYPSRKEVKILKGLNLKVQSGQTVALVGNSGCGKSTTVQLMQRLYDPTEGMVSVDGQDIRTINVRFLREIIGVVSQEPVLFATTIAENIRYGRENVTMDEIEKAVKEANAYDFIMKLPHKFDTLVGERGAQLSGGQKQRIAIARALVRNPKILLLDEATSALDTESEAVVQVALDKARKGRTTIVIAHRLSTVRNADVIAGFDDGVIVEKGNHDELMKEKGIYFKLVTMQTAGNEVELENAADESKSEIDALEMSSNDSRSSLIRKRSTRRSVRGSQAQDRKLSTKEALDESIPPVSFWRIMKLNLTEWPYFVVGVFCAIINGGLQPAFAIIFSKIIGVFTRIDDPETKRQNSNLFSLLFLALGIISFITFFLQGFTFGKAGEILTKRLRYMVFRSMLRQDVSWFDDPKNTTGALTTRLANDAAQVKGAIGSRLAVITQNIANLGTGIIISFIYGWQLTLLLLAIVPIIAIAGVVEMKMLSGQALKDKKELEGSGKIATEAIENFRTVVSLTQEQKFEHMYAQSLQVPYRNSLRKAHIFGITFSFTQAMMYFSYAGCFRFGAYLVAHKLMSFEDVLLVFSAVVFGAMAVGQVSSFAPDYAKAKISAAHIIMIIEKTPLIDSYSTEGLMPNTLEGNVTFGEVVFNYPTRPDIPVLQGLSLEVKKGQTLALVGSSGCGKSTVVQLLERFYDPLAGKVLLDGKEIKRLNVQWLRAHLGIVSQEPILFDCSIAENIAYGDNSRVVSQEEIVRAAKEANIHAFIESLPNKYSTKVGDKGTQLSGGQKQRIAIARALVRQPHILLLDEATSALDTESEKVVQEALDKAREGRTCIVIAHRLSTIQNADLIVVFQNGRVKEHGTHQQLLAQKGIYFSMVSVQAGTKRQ
From the text: Two different concentrations were employed to examine the effect of prodrug concentration on P-gp inhibition.

[3] = test system: peptide transporter; test: Uptake of [^3H]Gly-Sar by MDCKII-MDR1 cells in the presence of drug/derivative; format: cell-based, dog; details: for Effect on [^3H]Gly-Sar uptake: 100 μM SQV or prodrug; for Reduction of [^3H]Gly-Sar uptake: 100 μM prodrug; for Concentration dependence of inhibition of [^3H]Gly-Sar uptake: SQV prodrugs, different concentrations up to 100 μM
[4] = buffer
Procedure: Stability in DPBS was determined by incubating 200 μL prodrug solution with 800 μL DPBS with pH adjusted to 5 and 7.4. Slope of the line of “log percentage prodrug remaining versus time” plot was employed to calculate the degradation rate constants.

[5] = test system: MDCKII-MDR1 cell homogenates; details: dog
Procedure: Confluent MDCKII-MDR1 cells were washed three times with Dulbecco's phosphate buffered saline (DPBS) (130 mM NaCl, 7.5 mM Na2HPO4, 1.5 mM KH2PO4, 0.5 mM MgSO4, 1 mM CaCl2, […] and 5 mM glucose). Cells were then isolated with the aid of a mechanical scrapper and suspended in two volumes of water and homogenized (Multipro variable speed homogenizer, DREMEL; Racine, Wis.). Suitable dilutions were made to achieve a final protein concentration of 0.25 mg/mL. Protein content was determined according to the method of Bradford (Bradford, Anal. Biochem., 72, 248 (1976)) with BioRad protein estimation kit.
An aliquot (800 μL) of the cell homogenate was incubated with 200 μL (30 μg/mL) prodrug solution at 37° C. in a shaking water bath (60 rpm). One hundred microlitres samples were withdrawn at predetermined time points and an equal volume of ice-cold acetonitrile:methanol (5:4) mixture was added to stop the enzymatic reaction. Samples were stored at −80° C. until further analysis.

[6] = test system: MDCKII-MDR1 cell monolayers; test: in vitro
Procedure: (§1) Confluency was assessed by light microscopy.
(§2) Transport studies were conducted with MDCKII-MDR1 cell monolayers grown on 12-well Transwell® inserts (12 mm diameter). The medium was aspirated, and cell monolayers were washed three times (10 minutes per wash) with DPBS (pH 7.4). Volumes of the apical and basolateral chambers were 0.5 and 1.5 ml, respectively. Transport experiments were conducted for a period of 3 hours. Aliquots (200 μl) were withdrawn at predetermined time intervals, i.e., 15, 30, 45, 60, 90, 120, 150, and 180 minutes and replaced with fresh DPBS (pH 7.4) to maintain sink conditions. Samples were stored at −80° C. until further analysis. Experiments designed to investigate the effect of inhibitors involved preincubation of the cells with the inhibitor for a period of 30 minutes (inhibitor solution was added to both donor and receiver chambers) prior to the addition of the drug solution (also containing the inhibitor) to initiate the transport study. All transport experiments were performed at 37° C.
(§3) The HPLC system comprised an HP 1050 pump, an Agilent 1100 series fluorescence detector, and an Alcott autosampler (model 718 HPLC). A C(8) Luna column (250 mm×4.6 mm); Phenomenex, Torrance, Calif.) was employed in the analysis. The mobile phase consisted of 20 mM phosphate buffer (pH adjusted to 2.5) and 12% acetonitrile as the organic modifier. The parent drug and the derivative were detected with a fluorescence detector (λex=240 nm, λem=450 nm).
(§4) Linear regression analysis of the amounts transported as a function of time yielded the rate of transport across the cell monolayer (dM/dt). The rate divided by the cross-sectional are available for transport (A) generated the steady-state flux as shown in Equation 1. flux=(dM/dt)/A (Equation 1) Permeability was calculated by normalizing the steady-state flux to the donor concentration (Cd) of the drug according to Equation 2. Permeability=flux/Cd (Equation 2)
(§5) Transport studies with MDCKII-MDR1 cell monolayers were carried out as described in Example 7. […] Detection issues of the prodrug and/or parent drug in the acceptor chamber was considered for the selection of prodrug concentration. Aliquots (200 μL) were withdrawn at predetermined time intervals, i.e., 15, 30, 45, 60, 90, 120, 150, 180 min, respectively, and replaced with fresh DPBS, pH 7.4, to maintain sink conditions. Dilutions were taken into account for the calculations. Samples were stored at −80° C. until further analysis. All transport experiments were performed at 37° C.
(§6) The HPLC system was comprised of HP 1050 pump, Waters dual wavelength absorbance UV detector, and an Alcott auto sampler (model 718AL HPLC). A C(8) Luna column (250 mm×4.6 mm; Phenomenex, Torrance, Calif.) was employed for the separation of analytes. Mobile phase composed of acetonitrile:water:triethylamine (55:44:1%, v/v/v) and the pH was adjusted to 6.5 with o-phosphoric acid. Flow rate was maintained at 0.8 mL/min and detection wavelength was set at 240 nm.
(§7) Intact prodrug transported and breakdown products, formed during the transport study, were analyzed. Cumulative amount of drug transported (the sum of prodrug and regenerated parent drug) was plotted as a function of time. Apparent permeabilities (Papp) were determined from the linear portion of the cumulative amount versus time plot.

[7] = in vitro; details: dog, MDCK-MDR1
Procedure: as §1, §2, §3, §4, §5, §6, §7

[8] = test system: P-gp; details: rabbit, in vivo
Procedure: Adult male New Zealand albino rabbits weighing between 2-2.5 kg were obtained from Myrtle's rabbitry, Thompson Station, Tenn. Throughout an experiment, the animals were kept under anesthesia with ketamine HCl (35 mg/kg) and xylazine (3.5 mg/kg) given intramuscularly every hour. Pupils were dilated with two drops of 1% tropicamide prior to implantation of microdialysis probes. Linear probes were implanted in the anterior chamber using 25-gauge needles. They were inserted across the cornea just above the corneal scleral limbus so that they traversed through the center of the anterior chamber to the opposite end of the cornea, as evidenced by microscopic examination. The sample-collecting end of the linear probe was inserted carefully into the beveled edge end of the needle. The needle was retracted slowly, leaving the probe in the dialyzing membrane in the middle of the anterior chamber. The outlets of the probes were fixed to prevent any disturbances during sample collection. The probes were perfused with isotonic IPBS (pH 7.4) at a flow rate of 2 μl/min using a CMA/100 microinjection pump. After probe implantation, the animals were allowed to stabilize for 2 hours prior to the initiation of any study. […] Samples obtained in the study were analyzed by a scintillation counter (LS 6500, Beckman Instruments, Inc., Fullerton, Calif.).

[9] = target: P-gp (Oryctolagus cuniculus, UniProt Q6UUW3); details: rPCEC cells, equimolar concentrations
P-gp (Oryctolagus cuniculus, UniProt Q6UUW3), sequence (Q6UUW3 1-1279): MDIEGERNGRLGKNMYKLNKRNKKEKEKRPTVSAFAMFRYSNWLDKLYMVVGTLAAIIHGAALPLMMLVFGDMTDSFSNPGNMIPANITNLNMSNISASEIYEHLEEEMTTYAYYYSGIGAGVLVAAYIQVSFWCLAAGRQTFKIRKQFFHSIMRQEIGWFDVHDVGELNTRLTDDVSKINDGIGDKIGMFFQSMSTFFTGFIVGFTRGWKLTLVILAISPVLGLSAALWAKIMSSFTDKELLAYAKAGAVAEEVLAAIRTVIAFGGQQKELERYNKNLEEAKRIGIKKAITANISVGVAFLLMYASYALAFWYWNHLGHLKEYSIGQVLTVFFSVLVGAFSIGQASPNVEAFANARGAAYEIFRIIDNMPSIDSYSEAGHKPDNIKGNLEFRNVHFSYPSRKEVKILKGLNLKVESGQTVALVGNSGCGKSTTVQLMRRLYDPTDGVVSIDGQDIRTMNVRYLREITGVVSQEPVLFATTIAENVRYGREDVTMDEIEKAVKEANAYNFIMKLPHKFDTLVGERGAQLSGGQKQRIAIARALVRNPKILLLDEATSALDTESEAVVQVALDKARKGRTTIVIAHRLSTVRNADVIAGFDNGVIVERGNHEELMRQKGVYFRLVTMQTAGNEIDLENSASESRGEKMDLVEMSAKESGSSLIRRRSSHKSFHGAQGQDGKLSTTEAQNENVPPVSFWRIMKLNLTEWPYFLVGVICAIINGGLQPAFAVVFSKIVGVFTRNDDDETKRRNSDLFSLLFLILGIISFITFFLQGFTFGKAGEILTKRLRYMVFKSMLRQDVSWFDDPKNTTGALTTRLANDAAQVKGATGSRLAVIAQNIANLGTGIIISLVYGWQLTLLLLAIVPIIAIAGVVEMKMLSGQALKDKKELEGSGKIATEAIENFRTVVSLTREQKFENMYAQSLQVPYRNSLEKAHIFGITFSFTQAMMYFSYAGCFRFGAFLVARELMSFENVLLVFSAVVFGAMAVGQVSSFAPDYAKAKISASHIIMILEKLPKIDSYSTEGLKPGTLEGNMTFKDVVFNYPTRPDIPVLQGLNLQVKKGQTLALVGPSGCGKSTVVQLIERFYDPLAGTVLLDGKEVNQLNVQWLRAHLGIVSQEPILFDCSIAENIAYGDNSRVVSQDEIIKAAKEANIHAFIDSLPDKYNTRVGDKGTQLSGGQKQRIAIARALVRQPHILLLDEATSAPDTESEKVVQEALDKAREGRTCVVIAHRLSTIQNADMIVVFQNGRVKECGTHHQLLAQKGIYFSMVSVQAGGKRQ

[10] = test system: P-gp (human MDR1); test: in vitro; details: dog, MDCK-MDR1, pH 7.4
Procedure: as §1, §2, §3, §4, §5, §6, §7

SMILES: CN(CC(=O)O)C(=O)CN [Gly-Sar, Glycyl-Sarcosine] (H-Gly-[Sar]-OH)
Reduction of [^3H]Gly-Sar uptake ([1]; 1 mM unlabeled Gly-Sar): 20%
Uptake of [^3H]Gly-Sar ([1]; 1 mM unlabeled Gly-Sar): 0.026 pmol/min/mg
Reduction of [^3H]Gly-Sar uptake ([1]; 2 mM unlabeled Gly-Sar): 41%
Uptake of [^3H]Gly-Sar ([1]; 2 mM unlabeled Gly-Sar): 0.019 pmol/min/mg
Concentration dependence of [^3H]Gly-Sar cellular accumulation ([1]; unlabeled Gly-Sar 1 mM and 2 mM): concentration dependent decrease; also recorded: concentration dependent reduction

Concentration at which the prodrug saturates P-gp [2]: 75 µM
Half-life (t1/2) in DPBS, pH 5 [4]: 34.5±0.85 h
Half-life (t1/2) in DPBS, pH 7.4 [4]: 13.1±0.33 h
Half-life (t1/2) in MDCK-MDR1 cell homogenates [5]: 1.75 ± 0.11 h
Efflux ratio (BL Papp/AP Papp) ([6]; MDCK-MDR1): 6
SMILES: CC(C)[C@H](NC(=O)CN)C(=O)O[C@H](CN1C[C@H]2CCCC[C@H]2C[C@H]1C(=O)NC(C)(C)C)[C@H](Cc1ccccc1)NC(=O)[C@H](CC(N)=O)NC(=O)c1ccc2ccccc2n1 [Gly-Val-SQV, Gly-Val-saquinavir]
Effect on [^3H]Gly-Sar uptake [3]: significantly decreased
Reduction of [^3H]Gly-Sar uptake [3]: 42%
Concentration dependence of inhibition of [^3H]Gly-Sar uptake [3]: concentration dependent inhibition

SMILES: CC(C)(C)NC(=O)[C@@H]1C[C@@H]2CCCC[C@@H]2CN1C[C@@H](O)[C@H](Cc1ccccc1)NC(=O)[C@H](CC(N)=O)NC(=O)c1ccc2ccccc2n1 [SQV, saquinavir, reference compound]
Effect on [^3H]Gly-Sar uptake [3]: did not demonstrate any significant inhibition

SMILES: C=CC1CN2CCC1CC2C(OC(=O)C(N)C(C)C)c1ccnc2ccc(OC)cc12 (centres unmarked) [Val-Q, Val-Quinidine]
Inhibition of [^3H]Gly-Sar uptake [1]: concentration dependent inhibition
Difference between AP-BL and BL-AP permeability ([6]; MDCK-MDR1): equivalent
Apparent permeability Papp AP-BL ([6]; MDCK-MDR1, pH 7.4): 5.13±0.49×10^−6 cm.s^−1
Apparent permeability Papp BL-AP ([6]; MDCK-MDR1, pH 7.4): 6.17±1.28×10^−6 cm.s^−1

SMILES: C=C[C@H]1CN2CC[C@H]1C[C@@H]2[C@@H](OC(=O)[C@@H](NC(=O)[C@@H](N)C(C)C)C(C)C)c1ccnc2ccc(OC)cc12 [Val-Val-Q, Val-Val-Quinidine]
Inhibition of [^3H]Gly-Sar uptake [1]: concentration dependent inhibition

Concentration at which the prodrug saturates P-gp [2]: 50 µM
Half-life (t1/2) in DPBS, pH 5 [4]: 94.8±21.4 h
Half-life (t1/2) in DPBS, pH 7.4 [4]: 18.3±1.4 h
Half-life (t1/2) in MDCK-MDR1 cell homogenates [5]: 6.6 ± 0.56 h
Efflux ratio (BL Papp/AP Papp) ([6]; MDCK-MDR1): 6
SMILES: CC(C)[C@H](N)C(=O)N[C@H](C(=O)O[C@H](CN1C[C@H]2CCCC[C@H]2C[C@H]1C(=O)NC(C)(C)C)[C@H](Cc1ccccc1)NC(=O)[C@H](CC(N)=O)NC(=O)c1ccc2ccccc2n1)C(C)C [Val-Val-SQV, Val-Val-saquinavir]
Effect on [^3H]Gly-Sar uptake [3]: significantly decreased
Reduction of [^3H]Gly-Sar uptake [3]: 35%
Concentration dependence of inhibition of [^3H]Gly-Sar uptake [3]: concentration dependent inhibition

Papp [7]: < 0.2 ×10⁻⁶ cm/s
[^14C]mannitol transport across the cell monolayer ([6]; dog, MDCK-MDR1): < 0.5 %/h
SMILES: OC[C@@H](O)[C@@H](O)[C@H](O)[C@H](O)CO [[^14C]mannitol, mannitol, reference compound]

SMILES: C=C[C@H]1C[N@@]2CC[C@H]1C[C@@H]2[C@@H](O)c1ccnc2ccc(OC)cc12 [quinidine, reference compound]
Inhibition of the P-gp mediated efflux pump [8]: caused inhibition
Inhibitory effect on P-gp mediated efflux ([^3H]erythromycin uptake) [9]: high inhibitory effect
Inhibition of [^3H]Gly-Sar uptake [1]: did not demonstrate any inhibition
Difference between AP-BL and BL-AP permeability ([6]; MDCK-MDR1): three fold difference
Papp A→B at 3 h, 10 μM [10]: 6.5 ×10⁻⁶ cm/s
Papp B→A at 3 h, 10 μM [10]: 18.3 ×10⁻⁶ cm/s

From US20070142302A1, “PEPTIDYL PRODRUGS THAT RESIST P-GLYCOPROTEIN MEDIATED DRUG EFFLUX” (The Curators of the University of Missouri, priority 2004, published 2007)
